Earlier results as cited in PMC5641599 (Molecular Metabolism, 2017).
Where two headings read alike, the source gives them in different places.

Assays:
MC4R variants [1] = settings: cited from earlier work
MC4R variants [2] = settings: cited from earlier work; remark: listed apart in the source

Substance: NDP-MSH
- cAMP Emax - Ligand no.3 (MC4R variants [1]; MC4R C40R, COS-7 cell line, ref Tarnow P, J Biol Chem, 2003): 118.6 % of WT
- cAMP Emax - Ligand no.3 (MC4R variants [1]; MC4R C40R, ref Rong R, Clin Endocrinol, 2006): 87.0 % of WT
- cAMP Emax - Ligand no.3 (MC4R variants [1]; MC4R C40Y, COS-7 cell line, ref Hughes DA, Hum Genet, 2009): 103.0 % of WT
- cAMP Emax - Ligand no.3 (MC4R variants [1]; MC4R D37G, ref Hughes DA, Hum Genet, 2009): 83.0 % of WT
- cAMP Emax - Ligand no.3 (MC4R variants [1]; MC4R F280AfsX12, ref Xiang Z, Biochemistry, 2006): 0.0 % of WT
- cAMP Emax - Ligand no.3 (MC4R variants [1]; MC4R I251WfsX34, ref Xiang Z, Biochemistry, 2010): 0.0 % of WT
- cAMP Emax - Ligand no.3 (MC4R variants [1]; MC4R L211MfsX6, HEK293, ref Ho G, J Biol Chem, 1999): 0.0 % of WT
- cAMP Emax - Ligand no.3 (MC4R variants [1]; MC4R L211MfsX6, ref Xiang Z, Biochemistry, 2006): 0.0 % of WT
- cAMP Emax - Ligand no.3 (MC4R variants [1]; MC4R Q43X, ref Alfieri A, Gene, 2010): 0.0 % of WT
- cAMP Emax - Ligand no.3 (MC4R variants [1]; MC4R Q307X, COS-7 cell line, ref Reinehr T, Obesity, 2009): 0.0 % of WT
- cAMP Emax - Ligand no.3 (MC4R variants [1]; MC4R Q307X, ref Santoro N, BMC Med Genet, 2009): 0.0 % of WT
- cAMP Emax - Ligand no.3 (MC4R variants [1]; MC4R R7C, COS-7 cell line, ref Hinney A, J Clin Endocrinol Metab, 2006): 75.0 % of WT
- cAMP Emax - Ligand no.3 (MC4R variants [1]; MC4R R7C, ref Fan ZC, J Cell Mol Med, 2009): 102.0 % of WT
- cAMP Emax - Ligand no.3 (MC4R variants [1]; MC4R S19AfsX34, ref Alfieri A, Gene, 2010): 0.0 % of WT
- cAMP Emax - Ligand no.3 (MC4R variants [1]; MC4R S36T, COS-7 cell line, ref Hughes DA, Hum Genet, 2009): 88.0 % of WT
- cAMP Emax - Ligand no.3 (MC4R variants [1]; MC4R T11A, ref Tao YX, J Clin Endocrinol Metab, 2005): 109.0 % of WT
- cAMP Emax - Ligand no.3 (MC4R variants [1]; MC4R T246DfsX41, HEK293, ref Ho G, J Biol Chem, 1999): 0.0 % of WT
- cAMP Emax - Ligand no.3 (MC4R variants [1]; MC4R VADML88_92del, ref Donohoue PA, J Clin Endocrinol Metab, 2003): 0.0 % of WT
- cAMP Emax - Ligand no.3 (MC4R variants [1]; MC4R W16X, COS-7, ref Bolze F, Pharmacogenomics J, 2013): 20.0 % of WT
- cAMP Emax - Ligand no.3 (MC4R variants [1]; MC4R Y35C, ref Rong R, Clin Endocrinol, 2006): 105.0 % of WT
- cAMP Emax - Ligand no.3 (MC4R variants [1]; MC4R Y35X, ref Xiang Z, Biochemistry, 2006): 0.0 % of WT
- Binding Bmax (% of WT) (MC4R variants [2]; MC4R A303P, ref Hohenadel MG, Int J Obes, 2014): 22.4 % of WT
- Binding Bmax (% of WT) (MC4R variants [2]; MC4R A303T, ref Tan K, Endocrinology, 2009): 86.6 % of WT
- Binding Bmax (% of WT) (MC4R variants [2]; MC4R C84R, HEK293 cell line, ref Huang H, Int J Biol Sci, 2014): 5.0 % of WT
- Binding Bmax (% of WT) (MC4R variants [2]; MC4R C84R, ref Fan ZC, J Cell Mol Med, 2009): 0.0 % of WT
- Binding Bmax (% of WT) (MC4R variants [2]; MC4R C271Y, HEK293 cell line, ref Huang H, Int J Biol Sci, 2014): 70.0 % of WT
- Binding Bmax (% of WT) (MC4R variants [2]; MC4R C271Y, ref Tao YX, Endocrinology, 2003): 0.0 % of WT
- Binding Bmax (% of WT) (MC4R variants [2]; MC4R C271Y, ref Xiang Z, Biochemistry, 2006): 6.7 % of WT
- Binding Bmax (% of WT) (MC4R variants [2]; MC4R D90N, COS-7 cell line, ref Biebermann H, Diabetes, 2003): 80.0 % of WT
- Binding Bmax (% of WT) (MC4R variants [2]; MC4R D90N, ref Xiang Z, Biochemistry, 2010): 108.1 % of WT
- Binding Bmax (% of WT) (MC4R variants [2]; MC4R E61K, ref Tan K, Endocrinology, 2009): 39.6 % of WT
- Binding Bmax (% of WT) (MC4R variants [2]; MC4R E61K, ref Xiang Z, Biochemistry, 2010): 2.0 % of WT
- Binding Bmax (% of WT) (MC4R variants [2]; MC4R E308K, ref Xiang Z, Biochemistry, 2010): 37.8 % of WT
- Binding Bmax (% of WT) (MC4R variants [2]; MC4R F51L, ref Tao YX, J Clin Endocrinol Metab, 2005): 108.0 % of WT
- Binding Bmax (% of WT) (MC4R variants [2]; MC4R F51L, ref Xiang Z, Biochemistry, 2010): 113.5 % of WT
- Binding Bmax (% of WT) (MC4R variants [2]; MC4R G55D, ref Tan K, Endocrinology, 2009): 68.6 % of WT
- Binding Bmax (% of WT) (MC4R variants [2]; MC4R G55V, ref Hohenadel MG, Int J Obes, 2014): 55.4 % of WT
- Binding Bmax (% of WT) (MC4R variants [2]; MC4R G55V, ref Tan K, Endocrinology, 2009): 128.5 % of WT
- Binding Bmax (% of WT) (MC4R variants [2]; MC4R G98R, HEK293 cell line, ref Huang H, Int J Biol Sci, 2014): 0.0 % of WT
- Binding Bmax (% of WT) (MC4R variants [2]; MC4R G98R, ref Xiang Z, Biochemistry, 2010): 0.541 % of WT
- Binding Bmax (% of WT) (MC4R variants [2]; MC4R I69R, HEK293 cell line, ref Huang H, Int J Biol Sci, 2014): 0.0 % of WT
- Binding Bmax (% of WT) (MC4R variants [2]; MC4R I69T, ref Tan K, Endocrinology, 2009): 24.8 % of WT
- Binding Bmax (% of WT) (MC4R variants [2]; MC4R I69T, ref Xiang Z, Biochemistry, 2010): 8.1 % of WT
- Binding Bmax (% of WT) (MC4R variants [2]; MC4R I102S, ref Roubert P, J Endocrinol, 2010): 23.5 % of WT
- Binding Bmax (% of WT) (MC4R variants [2]; MC4R I102S, ref Tao YX, J Clin Endocrinol Metab, 2005): 0.0 % of WT
- Binding Bmax (% of WT) (MC4R variants [2]; MC4R I102S, ref Xiang Z, Biochemistry, 2006): 1.6 % of WT
- Binding Bmax (% of WT) (MC4R variants [2]; MC4R I102T, ref Larsen LH, J Clin Endocrinol Metab, 2005): 115.0 % of WT
- Binding Bmax (% of WT) (MC4R variants [2]; MC4R I102T, ref Roubert P, J Endocrinol, 2010): 51.0 % of WT
- Binding Bmax (% of WT) (MC4R variants [2]; MC4R I102T, ref Tao YX, J Clin Endocrinol Metab, 2005): 20.0 % of WT
- Binding Bmax (% of WT) (MC4R variants [2]; MC4R I301T, ref Nijenhuis WA, J Biol Chem, 2003): 10.0 % of WT
